Laboratory results: ChEMBL document CHEMBL4130381, “Puromycin based inhibitors of aminopeptidases for the potential treatment of hematologic malignancies” (Eur J Med Chem, 2017)

Key:
GFP protein synthesis [1] = experiment: Toxicity in human HeLa cells expressing pCFE-GFP assessed as inhibition of GFP proetin synthesis at 10 uM incubated for 30 mins measured for 2 hrs by spectrophotometric method relative to control; type: cell-based
[2] = Cytotoxicity against African green monkey Vero cells assessed as reduction in cell proliferation after 72 hrs by MTT assay; type: cell-based; conditions: chlorocebus sabaeus
GFP protein synthesis [3] = experiment: Toxicity in human HeLa cells expressing pCFE-GFP assessed as inhibition of GFP proetin synthesis at 25 uM incubated for 30 mins measured for 2 hrs by spectrophotometric method relative to control; type: cell-based
HL-60 = experiment: cells; conditions: Homo sapiens, HL-60, 72 h
Description: Antiproliferative activity against human HL60 cells after 72 hrs by MTT assay

MOLT-4 = experiment: cells; conditions: Homo sapiens, MOLT-4, 72 h
Description: Antiproliferative activity against human MOLT4 cells after 72 hrs by MTT assay

Aminopeptidase N = Aminopeptidase N (Homo sapiens, UniProt P15144); experiment: Inhibition of recombinant human C-terminal His10-tagged APN (Lys69 to Lys967 residues) using Ala-AMC as substrate measured for 30 mins by fluorescence assay
[4] = target: Puromycin-sensitive aminopeptidase (Homo sapiens, UniProt P55786); experiment: Inhibition of recombinant human N-terminal His6-MBP-tagged PSA expressed in Escherichia coli BL21 STAR (DE3) using 4-Ala-MNA as substrate measured for 30 mins by thefluorescence assay
Sequence of Puromycin-sensitive aminopeptidase (P55786 whole entry): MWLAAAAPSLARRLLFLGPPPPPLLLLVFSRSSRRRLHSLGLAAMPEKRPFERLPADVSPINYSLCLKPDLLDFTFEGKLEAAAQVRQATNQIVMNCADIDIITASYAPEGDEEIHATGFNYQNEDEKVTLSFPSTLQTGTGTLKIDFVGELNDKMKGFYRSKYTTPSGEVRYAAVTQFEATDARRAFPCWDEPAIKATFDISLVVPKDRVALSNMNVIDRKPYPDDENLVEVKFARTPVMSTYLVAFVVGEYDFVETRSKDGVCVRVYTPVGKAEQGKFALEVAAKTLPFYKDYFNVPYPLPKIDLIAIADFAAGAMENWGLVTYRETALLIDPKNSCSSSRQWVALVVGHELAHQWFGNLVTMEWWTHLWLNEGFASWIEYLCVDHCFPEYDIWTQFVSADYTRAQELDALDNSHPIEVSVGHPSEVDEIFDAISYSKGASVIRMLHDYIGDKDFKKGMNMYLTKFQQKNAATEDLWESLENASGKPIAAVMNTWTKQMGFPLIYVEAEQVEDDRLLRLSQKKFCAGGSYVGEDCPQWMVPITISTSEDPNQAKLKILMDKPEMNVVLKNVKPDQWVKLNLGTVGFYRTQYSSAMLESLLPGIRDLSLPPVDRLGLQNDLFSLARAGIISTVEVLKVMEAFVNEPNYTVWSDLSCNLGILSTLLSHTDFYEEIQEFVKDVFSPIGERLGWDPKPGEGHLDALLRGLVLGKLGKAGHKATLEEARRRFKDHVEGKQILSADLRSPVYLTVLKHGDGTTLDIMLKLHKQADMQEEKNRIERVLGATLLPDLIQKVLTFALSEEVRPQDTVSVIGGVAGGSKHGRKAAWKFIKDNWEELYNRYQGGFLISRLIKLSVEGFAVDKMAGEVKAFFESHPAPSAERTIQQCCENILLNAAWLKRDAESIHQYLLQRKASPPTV

Sequence of Aminopeptidase N (P15144 whole entry): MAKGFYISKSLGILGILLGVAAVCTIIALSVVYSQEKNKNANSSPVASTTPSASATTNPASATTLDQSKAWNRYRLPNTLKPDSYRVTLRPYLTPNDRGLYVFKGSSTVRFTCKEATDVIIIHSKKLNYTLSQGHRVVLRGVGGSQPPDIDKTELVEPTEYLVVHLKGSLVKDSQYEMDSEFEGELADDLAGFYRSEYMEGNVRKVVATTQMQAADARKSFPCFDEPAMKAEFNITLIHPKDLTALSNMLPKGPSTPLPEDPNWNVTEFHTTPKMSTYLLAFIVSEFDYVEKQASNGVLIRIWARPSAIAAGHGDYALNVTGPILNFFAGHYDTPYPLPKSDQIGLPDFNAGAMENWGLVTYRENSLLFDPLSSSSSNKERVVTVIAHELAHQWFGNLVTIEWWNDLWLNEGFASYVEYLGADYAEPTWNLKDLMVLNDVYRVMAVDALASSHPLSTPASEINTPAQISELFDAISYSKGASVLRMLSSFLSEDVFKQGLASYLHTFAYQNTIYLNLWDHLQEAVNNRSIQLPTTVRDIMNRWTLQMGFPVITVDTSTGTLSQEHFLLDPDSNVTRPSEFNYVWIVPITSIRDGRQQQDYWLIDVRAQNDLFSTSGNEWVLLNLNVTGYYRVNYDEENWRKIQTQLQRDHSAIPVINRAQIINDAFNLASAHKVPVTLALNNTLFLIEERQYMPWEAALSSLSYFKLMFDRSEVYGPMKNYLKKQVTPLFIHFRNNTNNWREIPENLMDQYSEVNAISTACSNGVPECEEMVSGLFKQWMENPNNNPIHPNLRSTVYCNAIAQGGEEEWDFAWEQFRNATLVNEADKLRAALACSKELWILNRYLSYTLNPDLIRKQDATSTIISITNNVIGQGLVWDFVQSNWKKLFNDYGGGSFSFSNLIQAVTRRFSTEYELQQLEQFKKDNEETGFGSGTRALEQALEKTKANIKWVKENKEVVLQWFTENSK

SMILES | inhibition at 30 min, 10 µM (GFP protein synthesis [1]) | CC50 at 72 h [2] | inhibition at 30 min, 25 µM (GFP protein synthesis [3]) | EC50 (HL-60) | EC50 (MOLT-4) | IC50 (Aminopeptidase N) | IC50 [4]
CN(C)c1ncnc2c1ncn2[C@@H]1O[C@H](CO)[C@@H](NC(=O)[C@@H](N)CSCc2ccccc2)[C@H]1O | 30% | 0.88 µM | 30% | 0.19 µM | 0.18 µM | – | –
CN(C)c1ncnc2c1ncn2[C@@H]1O[C@H](CO)[C@@H](NC(=O)[C@@H](N)CSC(c2ccccc2)c2ccccc2)[C@H]1O | – | > 100 µM | 0% | 32 µM | 1.3 µM | – | –
CN(C)c1ncnc2c1ncn2[C@@H]1O[C@H](CO)[C@@H](NC(=O)[C@@H](N)Cc2ccccc2)[C@H]1O | – | 3.2 µM | 59% | 0.41 µM | 0.39 µM | – | –
N[C@@H](CSC(c1ccccc1)c1ccccc1)C(=O)NCCCO | – | > 100 µM | 0% | > 100 µM | > 100 µM | – | –
CN(C)c1ncnc2c1ncn2[C@@H]1O[C@H](CO)[C@@H](NC(=O)[C@H](N)CSC(c2ccccc2)c2ccccc2)[C@H]1O | – | 46 µM | 0% | 34 µM | 11 µM | – | –
CN(C)c1ncnc2c1ncn2[C@@H]1O[C@H](CO)[C@@H](NC(=O)[C@@H](N)CSC(c2ccccc2)(c2ccccc2)c2ccccc2)[C@H]1O | – | > 100 µM | 0% | > 100 µM | 31 µM | – | –
CN(C)c1ncnc2c1ncn2[C@@H]1O[C@H](CO)[C@@H](NC(=O)[C@H](N)CSC(c2ccccc2)(c2ccccc2)c2ccccc2)[C@H]1O | – | 15 µM | 0% | 10 µM | 14 µM | – | –
CN(C)c1ncnc2c1ncn2[C@@H]1O[C@H](CO)[C@@H](NC(=O)[C@H](N)CSCc2ccccc2)[C@H]1O | – | 17 µM | 0% | 46 µM | 14 µM | – | –
COc1ccc(C[C@H](N)C(=O)N[C@H]2[C@@H](O)[C@H](n3cnc4c(N(C)C)ncnc43)O[C@@H]2CO)cc1 [PUROMYCIN] | – | 2.8 µM | 99% | 0.055 µM | 0.17 µM | 41 µM | 9.7 µM
CC(C)C[C@@H](C(=O)N[C@H](C(=O)OC1CCCC1)c1ccccc1)[C@H](O)C(=O)NO [TOSEDOSTAT] | – | 13 µM | 35% | 4.7 µM | 2.1 µM | 0.68 µM | 0.26 µM
CC(C)C[C@H](NC(=O)[C@@H](O)[C@H](N)Cc1ccccc1)C(=O)O [UBENIMEX] | – | 25 to 100 µM | 28% | > 100 µM | > 100 µM | – | 3.5 µM
